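These data come from cells grown in 96-well plates and exposed to compound for 48 hours at five concentrations. The concentration for full growth arrest is given as TGI.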
Experiments:
Experiment in all cases: growth of human tumour cells (NCI), 48 h
K-562 leukemia = system: K-562 leukemia
SN12C renal = system: SN12C renal
HT29 colon = system: HT29 colon
NCI-H460 lung = system: NCI-H460 lung
KM12 colon = system: KM12 colon
SW-620 colon = system: SW-620 colon
NCI-H522 lung = system: NCI-H522 lung
TK-10 renal = system: TK-10 renal
SNB-19 CNS = system: SNB-19 CNS
OVCAR-3 ovarian = system: OVCAR-3 ovarian
RXF 393 renal = system: RXF 393 renal
MCF7 breast = system: MCF7 breast
A498 renal = system: A498 renal
MDA-MB-435 = system: MDA-MB-435
MDA-N = system: MDA-N
BT-549 breast = system: BT-549 breast
EKVX NSCLC = system: EKVX NSCLC
SK-OV-3 ovarian = system: SK-OV-3 ovarian
OVCAR-8 ovarian = system: OVCAR-8 ovarian
HCC-2998 colon = system: HCC-2998 colon
DU-145 prostate = system: DU-145 prostate
T-47D breast = system: T-47D breast
UACC-257 melanoma = system: UACC-257 melanoma
HS 578T breast = system: HS 578T breast
COLO 205 colon = system: COLO 205 colon
SF-295 CNS = system: SF-295 CNS
CCRF-CEM leukemia = system: CCRF-CEM leukemia
SF-539 CNS = system: SF-539 CNS
SK-MEL-5 melanoma = system: SK-MEL-5 melanoma
HCT-15 colon = system: HCT-15 colon
MDA-MB-231 breast = system: MDA-MB-231 breast
OVCAR-5 ovarian = system: OVCAR-5 ovarian
LOX IMVI melanoma = system: LOX IMVI melanoma
IGROV1 ovarian = system: IGROV1 ovarian
UACC-62 melanoma = system: UACC-62 melanoma
NCI-H23 lung = system: NCI-H23 lung
SK-MEL-2 melanoma = system: SK-MEL-2 melanoma
NCI/ADR-RES ovarian = system: NCI/ADR-RES ovarian
786-0 renal = system: 786-0 renal
MALME-3M melanoma = system: MALME-3M melanoma
SF-268 CNS = system: SF-268 CNS
HL-60(TB) leukemia = system: HL-60(TB) leukemia
ACHN renal = system: ACHN renal
HCT-116 colon = system: HCT-116 colon
A549 NSCLC = system: A549 NSCLC
MOLT-4 leukemia = system: MOLT-4 leukemia
CAKI-1 renal = system: CAKI-1 renal
PC-3 prostate = system: PC-3 prostate
U251 CNS = system: U251 CNS
OVCAR-4 ovarian = system: OVCAR-4 ovarian
UO-31 renal = system: UO-31 renal
SK-MEL-28 melanoma = system: SK-MEL-28 melanoma
HOP-92 NSCLC = system: HOP-92 NSCLC
NCI-H226 lung = system: NCI-H226 lung
M14 melanoma = system: M14 melanoma
SNB-75 CNS = system: SNB-75 CNS
RPMI-8226 leukemia = system: RPMI-8226 leukemia
HOP-62 NSCLC = system: HOP-62 NSCLC

CC(C#N)NCc1ccc(C(C)NC(C)C#N)cc1 (stereo not given)
TGI (K-562 leukemia): > 100 µM
TGI (SN12C renal): > 100 µM
TGI (HT29 colon): > 100 µM
TGI (NCI-H460 lung): > 100 µM
TGI (KM12 colon): > 100 µM
TGI (SW-620 colon): > 100 µM
TGI (NCI-H522 lung): > 100 µM
TGI (TK-10 renal): > 100 µM
TGI (SNB-19 CNS): > 100 µM
TGI (OVCAR-3 ovarian): > 100 µM
TGI (RXF 393 renal): > 100 µM
TGI (MCF7 breast): > 100 µM
TGI (A498 renal): > 100 µM
TGI (MDA-MB-435): > 100 µM
TGI (MDA-N): > 100 µM
TGI (BT-549 breast): > 100 µM
TGI (EKVX NSCLC): > 100 µM
TGI (SK-OV-3 ovarian): > 100 µM
TGI (OVCAR-8 ovarian): > 100 µM
TGI (HCC-2998 colon): > 100 µM
TGI (DU-145 prostate): > 100 µM
TGI (T-47D breast): > 100 µM
TGI (UACC-257 melanoma): > 100 µM
TGI (HS 578T breast): > 100 µM
TGI (COLO 205 colon): > 100 µM
TGI (SF-295 CNS): > 100 µM
TGI (CCRF-CEM leukemia): > 100 µM
TGI (SF-539 CNS): > 100 µM
TGI (SK-MEL-5 melanoma): > 100 µM
TGI (HCT-15 colon): > 100 µM
TGI (MDA-MB-231 breast): > 100 µM
TGI (OVCAR-5 ovarian): > 100 µM
TGI (LOX IMVI melanoma): > 100 µM
TGI (IGROV1 ovarian): > 100 µM
TGI (UACC-62 melanoma): > 100 µM
TGI (NCI-H23 lung): > 100 µM
TGI (SK-MEL-2 melanoma): > 100 µM
TGI (NCI/ADR-RES ovarian): > 100 µM
TGI (786-0 renal): > 100 µM
TGI (MALME-3M melanoma): > 100 µM
TGI (SF-268 CNS): > 100 µM
TGI (HL-60(TB) leukemia): > 100 µM
TGI (ACHN renal): > 100 µM
TGI (HCT-116 colon): > 100 µM
TGI (A549 NSCLC): > 100 µM
TGI (MOLT-4 leukemia): > 100 µM
TGI (CAKI-1 renal): > 100 µM
TGI (PC-3 prostate): > 100 µM
TGI (U251 CNS): > 100 µM
TGI (OVCAR-4 ovarian): > 100 µM
TGI (UO-31 renal): > 100 µM
TGI (SK-MEL-28 melanoma): > 100 µM
TGI (HOP-92 NSCLC): > 100 µM
TGI (NCI-H226 lung): > 100 µM
TGI (M14 melanoma): > 100 µM

Clc1ccc(N=C2c3ccccc3CN2c2ccc(Cl)cc2)cc1
TGI (K-562 leukemia): > 100 µM
TGI (SN12C renal): > 100 µM
TGI (HT29 colon): > 100 µM
TGI (NCI-H460 lung): > 100 µM
TGI (KM12 colon): > 100 µM
TGI (SW-620 colon): > 100 µM
TGI (SNB-75 CNS): > 100 µM
TGI (NCI-H522 lung): > 100 µM
TGI (RPMI-8226 leukemia): > 100 µM
TGI (TK-10 renal): > 100 µM
TGI (SNB-19 CNS): > 100 µM
TGI (OVCAR-3 ovarian): > 100 µM
TGI (RXF 393 renal): > 100 µM
TGI (HOP-62 NSCLC): > 100 µM
TGI (MCF7 breast): > 100 µM
TGI (A498 renal): > 100 µM
TGI (MDA-MB-435): > 100 µM
TGI (MDA-N): > 100 µM
TGI (BT-549 breast): > 100 µM
TGI (EKVX NSCLC): > 100 µM
TGI (SK-OV-3 ovarian): > 100 µM
TGI (OVCAR-8 ovarian): > 100 µM
TGI (HCC-2998 colon): > 100 µM
TGI (DU-145 prostate): > 100 µM
TGI (T-47D breast): 94 µM
TGI (UACC-257 melanoma): > 100 µM
TGI (HS 578T breast): > 100 µM
TGI (COLO 205 colon): > 100 µM
TGI (SF-295 CNS): > 100 µM
TGI (SF-539 CNS): > 100 µM
TGI (SK-MEL-5 melanoma): > 100 µM
TGI (HCT-15 colon): > 100 µM
TGI (MDA-MB-231 breast): > 100 µM
TGI (OVCAR-5 ovarian): > 100 µM
TGI (LOX IMVI melanoma): > 100 µM
TGI (IGROV1 ovarian): > 100 µM
TGI (UACC-62 melanoma): > 100 µM
TGI (NCI-H23 lung): > 100 µM
TGI (SK-MEL-2 melanoma): > 100 µM
TGI (NCI/ADR-RES ovarian): > 100 µM
TGI (786-0 renal): > 100 µM
TGI (SF-268 CNS): > 100 µM
TGI (ACHN renal): > 100 µM
TGI (HCT-116 colon): > 100 µM
TGI (A549 NSCLC): > 100 µM
TGI (MOLT-4 leukemia): > 100 µM
TGI (CAKI-1 renal): > 100 µM
TGI (PC-3 prostate): > 100 µM
TGI (U251 CNS): > 100 µM
TGI (OVCAR-4 ovarian): > 100 µM
TGI (UO-31 renal): > 100 µM
TGI (SK-MEL-28 melanoma): > 100 µM
TGI (HOP-92 NSCLC): > 100 µM
TGI (NCI-H226 lung): > 100 µM
TGI (M14 melanoma): > 100 µM

Reference: PubChem BioAssay (NCI)
